Experiments:
Type in all cases: cell-based
Human LPA1 [1] = biological target: T1, Human LPA1 (Homo sapiens, UniProt Q92633); assay: Beta-Arrestin based assay for human LPA1R antagonists (PathHunter); conditions: CHO cells expressing ProLink tagged human LPA1R; antagonist mode, 0.5 micromolar LPA
Protocol: Beta-Arrestin Based Assays for Human LPA1R Antagonists and Agonists
A CHO cell line stably expressing the ProLink™ tagged human LPA1R was obtained from DiscoverX Inc, Fremont, Calif. In this system, β-Arrestin was fused to an N-terminal deletion mutant of β-galactosidase (termed the enzyme acceptor or EA), the human LPA1R was fused to a smaller (42 amino acids) weakly complementing fragment termed ProLink™. […] Cell handling and assays were performed according to protocols specified in the PathHunter® assays kits (DiscoverX, Fremont, Calif.). Assays were performed in quadruplicate in white 384 well plates. End point luminescence data were plotted and fit to a 4 parameter logistic function to obtain IC50 values. For antagonist assays, an […] concentration of agonist (LPA) equal to 0.5 micromolar was used.

[2] = tested on: primary fibroblasts (including lung, dermal), HFL-1, 3T3 and CHO cells expressing LPA1R; assay: LPA1 migration assay (Oris cell migration); conditions: inhibition of cell migration in response to chemoattractant (LPA, serum)
From the text: Migration of primary fibroblasts (including lung, dermal), HFL-1, 3T3 and CHO cells expressing LPA1R were monitored using the Oris™ assay (Platypus Technologies, Madison, Wis.). These cells were dye (Cell Tracker Green™) loaded and serum starved for 12-24 hrs. In response to chemoattractants such as LPA and serum, the cells migrated inward in to the exclusion (detection) zone. After fixing, fluorescent cells in the detection zone were counted using a high content reader. The ability of LPA1 antagonists to inhibit cell migration is quantified by plotting cell number vs. compound concentration and curve fitting the resulting dose-response curve to a 4 parameter logistic function.

Human LPA1 [3] = biological target: T1, Human LPA1; assay: LPA1 calcium flux assay; design: the full-length cDNA for human LPA1 is obtained by PCR of the reverse transcription reaction; expressed in transfected cells; conditions: human LPA1 expressing CHO cells, stimulated with 10 nM LPA; read-out: Ca Flux LPA1 IC50
Protocol: Establishment of a CHO Cell Line Stably Expressing Human LPA1
A 1.1 kb cDNA encoding the human LPA1 receptor is cloned from human lung. Human lung RNA (Clontech Laboratories, Inc. USA) is reverse transcribed using the RETROscript kit (Ambion, Inc.) and the full-length cDNA for human LPA1 is obtained by PCR of the reverse transcription reaction. The nucleotide sequence of the cloned human LPA1 is determined by sequencing and is confirmed to be identical to the published human LPA1 sequence (An et al. Biochem. Biophys. Res. Commun. 231:619 (1997). The cDNA is cloned into the pCDNA5 pcDNA5/FRT expression plasmid and is transfected in CHO cells using lipofectamine 2000 (Invitrogen Corp., USA). Clones stably expressing human LPA1 are selected using hygromycin and identified as cells that show Ca-influx in response to LPA.
LPA1 and LPA3 Calcium Flux Assays
Human LPA1 or LPA3 expressing CHO cells were seeded at 20,000-45,000 cells per well in a 96-well poly-D-lysine coated plate one or two days before the assay. Prior to the assay, the cells were washed once with PBS and then cultured in serum-free media overnight. On the day of the assay, a calcium indicator dye (Calcium 4, Molecular Devices) in assay buffer (HBSS with Ca^2+ and Mg^2+ and containing 20 mM Hepes and 0.3% fatty-acid free human serum albumin) was added to each well and incubation continued for 1 hour at 37° C. 10 μl of test compounds in 2.5% DMSO were added to the cells and incubation continued at room temperature for 30 minutes. Cells were then stimulated by the addition of 10 nM LPA and intracellular Ca^2+ measured using the Flexstation 3 (Molecular Devices). IC50, were determined using Graphpad prism analysis of drug titration curves.

T1 sequence (Q92633 whole entry): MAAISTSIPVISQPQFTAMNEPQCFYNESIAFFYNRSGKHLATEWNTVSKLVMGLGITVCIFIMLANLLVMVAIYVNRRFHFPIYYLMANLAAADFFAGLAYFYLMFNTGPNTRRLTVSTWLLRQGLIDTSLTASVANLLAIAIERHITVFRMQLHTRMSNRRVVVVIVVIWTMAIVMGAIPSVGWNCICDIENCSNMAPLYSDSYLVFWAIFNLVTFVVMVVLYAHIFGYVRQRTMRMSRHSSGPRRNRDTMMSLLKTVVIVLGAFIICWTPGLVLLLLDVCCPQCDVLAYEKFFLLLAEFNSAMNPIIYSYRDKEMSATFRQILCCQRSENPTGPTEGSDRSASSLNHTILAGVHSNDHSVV

| Structure (SMILES) | EC50 (Human LPA1 [1]) [µM] | IC50 (Human LPA1 [3]) [µM] | EC50 [2] [µM] |
| --- | --- | --- | --- |
| Cc1noc(-c2ccc(-c3ccc4c(C(=O)O)c[nH]c4c3)cc2)c1NC(=O)O[C@H](C)c1ccccc1 [IT009] | > 0.5 | > 0.5 | > 0.5 |
| Cc1noc(-c2ccc(-c3nc4ccc(C(=O)O)cc4s3)cc2)c1NC(=O)O[C@H](C)c1ccccc1 [IT010] | > 0.5 | > 0.5 | > 0.5 |
| C[C@@H](OC(=O)Nc1c(-c2ccc(C#CC3(C(=O)O)CC3)cc2)cnn1C)c1ccccc1 [IT018] | > 0.5 | > 0.5 | > 0.5 |
| CC(=O)N1CCn2c(nc(-c3ccc(-c4ccc(C5(C(=O)O)CC5)cc4)cc3)c2NC(=O)O[C@H](C)c2ccccc2)C1 [IT020] | > 0.5 | > 0.5 | > 0.5 |
| C[C@@H](OC(=O)Nc1c(-c2ccc(-c3ccc(C4(C(=O)O)CC4)cc3)cc2)nc2n1CCN(S(C)(=O)=O)C2)c1ccccc1 [IT021] | > 0.5 | > 0.5 | > 0.5 |
| CNC(=O)N1CCn2c(nc(-c3ccc(-c4ccc(C5(C(=O)O)CC5)cc4)cc3)c2NC(=O)O[C@H](C)c2ccccc2)C1 [IT022] | > 0.5 | > 0.5 | > 0.5 |
| CCOC(=O)N1CCn2c(nc(-c3ccc(-c4ccc(C5(C(=O)O)CC5)cc4)cc3)c2NC(=O)O[C@H](C)c2ccccc2)C1 [IT023] | > 0.5 | > 0.5 | > 0.5 |
| Cc1nsc(-c2ccc(C34CCC(CC(=O)O)(CC3)CC4)cc2)c1NC(=O)O[C@H](C)c1ccccc1 [IT026] | > 0.5 | > 0.5 | > 0.5 |
| C[C@@H](OC(=O)Nc1c(-c2ccc(-c3ccc(C4(C(=O)O)CCOCC4)cc3)cc2)ncn1C)c1ccccc1 [IT027] | 0.05 to 0.5 | 0.05 to 0.5 | > 0.5 |
| Cc1noc(-c2cc(F)c(-c3ccc(C4(C(=O)O)CCOCC4)cc3)cc2F)c1NC(=O)O[C@H](C)c1ccccc1 [IT030] | > 0.5 | > 0.5 | > 0.5 |
| C[C@@H](OC(=O)Nc1c(-c2ccc(-c3ccc(C4(C(=O)O)CC4)cc3)cc2)nn2ncccc12)c1ccccc1 [IT033] | < 0.05 | 0.05 to 0.5 | < 0.05 |
| Cc1nsc(-c2ccc3cc(-c4ccc(C(=O)O)cc4)ccc3c2)c1NC(=O)O[C@H](C)c1ccccc1 [IT040] | > 0.5 | > 0.5 | > 0.5 |
| Cc1noc(C#Cc2ccc(-c3ccc(C(=O)O)cc3)cc2)c1NC(=O)O[C@H](C)c1ccccc1 [IT081] | > 0.5 |  | > 0.5 |
| C[C@@H](OC(=O)Nc1c(C#Cc2cc3sc(C4(C(=O)OCCN5CCOCC5)CC4)cc3s2)cnn1C)c1ccccc1 [IT082] | 0.05 to 0.5 |  | 0.05 to 0.5 |
| C[C@@H](OC(=O)Nc1c(C#Cc2cc3sc(C4(CO)CC4)cc3s2)cnn1C)c1ccccc1 [IT083] | > 0.5 |  | > 0.5 |
| CCOC(=O)C1(c2cc3sc(C#Cc4cnn(C)c4NC(=O)O[C@H](C)c4ccccc4)cc3s2)CC1 [IT085] | < 0.05 |  | > 0.5 |
| CC(C)OC(=O)C1(c2cc3sc(C#Cc4cnn(C)c4NC(=O)O[C@H](C)c4ccccc4)cc3s2)CC1 [IT086] | 0.05 to 0.5 |  | > 0.5 |
| C[C@@H](OC(=O)Nc1c(C#Cc2cc3sc(C4(C(=O)OCOC(=O)C(C)(C)C)CC4)cc3s2)cnn1C)c1ccccc1 [IT087] | < 0.05 |  | < 0.05 |
| COc1ccccc1OC(=O)C1(c2cc3sc(C#Cc4cnn(C)c4NC(=O)O[C@H](C)c4ccccc4)cc3s2)CC1 [IT088] | < 0.05 |  | 0.05 to 0.5 |
| C[C@@H](OC(=O)Nc1c(C#Cc2cc3sc(C4(NS(C)(=O)=O)CC4)cc3s2)cnn1C)c1ccccc1 [IT089] | > 0.5 |  | > 0.5 |
| C[C@@H](OC(=O)Nc1c(C#Cc2cc3sc(C4(C(=O)OCC(=O)N(C)C)CC4)cc3s2)cnn1C)c1ccccc1 [IT090] | < 0.05 |  | 0.05 to 0.5 |
| Cc1nsc(-c2ccc(C3CCC(C4(C(=O)O)CC4)CC3)cc2)c1NC(=O)O[C@H](C)c1ccccc1 (stereo partly drawn) [IT091] | 0.05 to 0.5 |  | > 0.5 |
| C[C@@H](OC(=O)Nc1c(C#CC2=CCC(C3(C(=O)O)CC3)CC2)cnn1C)c1ccccc1 (stereo partly drawn) [IT092] | > 0.5 |  | > 0.5 |
| Cc1nsc(-c2ccc(C34CCC(C5(C(=O)O)CC5)(CC3)CC4)cc2)c1NC(=O)O[C@H](C)c1ccccc1 [IT093] | > 0.5 |  | > 0.5 |
| C[C@@H](OC(=O)Nc1c(-c2ccc(-c3ccc(C4(C(=O)O)CC4)cc3)cc2)cnn1C(F)(F)F)c1ccccc1 [IT094] | < 0.05 |  | 0.05 to 0.5 |
| C[C@@H](OC(=O)Nc1c(C#Cc2nc3sc(C4(C(=O)O)CC4)cc3s2)cnn1C)c1ccccc1 [IT095] | < 0.05 |  | < 0.05 |
| C[C@@H](OC(=O)Nc1c(-c2cc(F)c(-c3ccc(C4(C(=O)O)CC4)cc3)cc2F)oc2cnccc12)c1ccccc1 [IT096] | < 0.05 |  | 0.05 to 0.5 |
| C[C@@H](OC(=O)N(C)c1c(C#Cc2cc3sc(C4(C(=O)O)CC4)cc3s2)cnn1C)c1ccccc1 [IT097] | 0.05 to 0.5 |  | > 0.5 |
| C[C@@H](OC(=O)Nc1c(C#Cc2cc3sc(C4(C(=O)NS(C)(=O)=O)CC4)cc3s2)cnn1C)c1ccccc1 [IT098] | < 0.05 |  | < 0.05 |

Second part, led by results:

| EC50 (Human LPA1 [1]) [µM] | IC50 (Human LPA1 [3]) [µM] | Structure (SMILES) | EC50 [2] [µM] |
| --- | --- | --- | --- |
| < 0.05 | < 0.05 | Cc1noc(C#Cc2ccc3cc(C4(CC(=O)O)CC4)ccc3c2)c1NC(=O)O[C@H](C)c1ccccc1 [IT003] | 0.05 to 0.5 |
| < 0.05 | < 0.05 | Cc1noc(-c2ccc(-c3ccc(C4(CC(=O)O)CC4)cc3)cc2)c1NC(=O)O[C@H](C)c1ccccc1 [IT004] | < 0.05 |
| < 0.05 | < 0.05 | C[C@@H](OC(=O)Nc1c(C#Cc2ccc3cc(C4(C(=O)O)CC4)ccc3c2)cnn1C)c1ccccc1 [IT014] | 0.05 to 0.5 |
| < 0.05 | 0.05 to 0.5 | C[C@@H](OC(=O)Nc1c(C#Cc2ccc3cc(C4(C(=O)O)CC4)ccc3c2)cnn1C1CC1)c1ccccc1 [IT015] | 0.05 to 0.5 |
| < 0.05 | < 0.05 | CCn1ncc(C#Cc2ccc3cc(C4(C(=O)O)CC4)ccc3c2)c1NC(=O)O[C@H](C)c1ccccc1 [IT016] | 0.05 to 0.5 |
| < 0.05 | < 0.05 | C[C@@H](OC(=O)Nc1c(C#Cc2cc3sc(C4(C(=O)O)CC4)cc3s2)cnn1C)c1ccccc1 [IT017] | < 0.05 |
| < 0.05 | < 0.05 | Cc1noc(-c2ccc(-c3ccc(C4(C(=O)O)CCOCC4)cc3)c(F)c2)c1NC(=O)O[C@H](C)c1ccccc1 [IT028] | < 0.05 |
| < 0.05 | 0.05 to 0.5 | Cc1noc(-c2cc(F)c(-c3ccc(C4(C(=O)O)CCOCC4)cc3)cc2F)c1NC(=O)O[C@H](C)c1ccccc1 [IT029] | 0.05 to 0.5 |
| < 0.05 | 0.05 to 0.5 | C[C@@H](OC(=O)Nc1c(-c2ccc(-c3ccc(C4(C(=O)O)CC4)cc3)cc2)sc2ncccc12)c1ccccc1 [IT031] | 0.05 to 0.5 |
| < 0.05 | 0.05 to 0.5 | C[C@@H](OC(=O)Nc1c(-c2ccc(-c3ccc(C4(C(=O)O)CC4)cc3)cc2)nc2cnccn12)c1ccccc1 [IT032] | 0.05 to 0.5 |
| < 0.05 | 0.05 to 0.5 | Cc1nsc(C#Cc2cc3sc(C4(C(=O)O)CC4)cc3s2)c1NC(=O)O[C@H](C)c1ccccc1 [IT034] | 0.05 to 0.5 |
| < 0.05 | > 0.5 | C[C@@H](OC(=O)Nc1c(C#Cc2ccc3cc(C4(C(=O)O)CC4)ccc3c2)sc2ncccc12)c1ccccc1 [IT035] | 0.05 to 0.5 |
| < 0.05 |  | COCCOC(=O)C1(c2cc3sc(C#Cc4cnn(C)c4NC(=O)O[C@H](C)c4ccccc4)cc3s2)CC1 [IT084] | 0.05 to 0.5 |
